{"source": "PubChem BioAssay AID1259409", "about": "(Chemical Carcinogenesis Research Information System (CCRIS), 2018)", "origin": "cited, not measured here", "system": "rodent chemically induced tumor inhibition, incidence and multiplicity", "test": "CCRIS tumor inhibitor studies", "details": "Carcinogen: N-NITROBIS(2-OXOPROPYL)AMINE, 60559-38-4, Dose [Inhibitor]: 0.5 OR 1.0 MMOL/KG DIET DAILY STARTING 1 WK AFTER CARCINOGEN TREATMENT AND CONTINUING THROUGH THE END OF THE STUDY (STUD, Route [Inhibitor]: ORAL, Species: HAMSTER, Promoter: NONE USED", "excerpt": "The CCRIS database contains chemical records with carcinogenicity, mutagenicity, tumor promotion, and tumor inhibition test results. It was developed by the National Cancer Institute (NCI). Data are derived from studies cited in primary journals, current awareness tools, NCI reports, and other sources. Test results have been reviewed by experts in carcinogenesis and mutagenesis.\nCCRIS provides historical information from the years 1985 - 2011. It is no longer updated.\nThis is an archive assay for CCRIS tumor inhibitor studies."}
{"smiles": "CC1=C(/C=C/C(C)=C/C=C/C(C)=C/C(=O)NCCO)C(C)(C)CCC1", "values": [{"measurement": "tumour outcome (control, treated, inhibition, significance)", "setting": "Strain/Sex: SYRIAN/FEMALE, Target Tissue: Type of Lesion: LIVER: BENIGN TUMOR, Dose [Carcinogen]: 40 MG/KG BW ONCE", "value": "4/20 (20%), 17/35 (49%), -145%, not significant"}, {"measurement": "tumour outcome (control, treated, inhibition, significance)", "setting": "Strain/Sex: SYRIAN/FEMALE, Target Tissue: Type of Lesion: ND: TOTAL TUMOR, Dose [Carcinogen]: 10 MG/KG BW ONCE", "value": "13/23 (56%), 21/37 (57%), -2%, not significant"}, {"measurement": "tumour outcome (control, treated, inhibition, significance)", "setting": "Strain/Sex: SYRIAN/FEMALE, Target Tissue: Type of Lesion: ND: TOTAL TUMOR, Dose [Carcinogen]: 40 MG/KG BW ONCE", "value": "17/20 (85%), 33/34 (97%), -14%, not significant"}, {"measurement": "tumour outcome (control, treated, inhibition, significance)", "setting": "Strain/Sex: SYRIAN/FEMALE, Target Tissue: Type of Lesion: PANCREAS: DUCTULAR ADENOMA, Dose [Carcinogen]: 10 MG/KG BW ONCE", "value": "5/23 (23%), 10/37 (27%), -17%, not significant"}, {"measurement": "tumour outcome (control, treated, inhibition, significance)", "setting": "Strain/Sex: SYRIAN/FEMALE, Target Tissue: Type of Lesion: PANCREAS: DUCTULAR ADENOMA, Dose [Carcinogen]: 40 MG/KG BW ONCE", "value": "12/20 (60%), 27/33 (82%), -37%, not significant"}, {"measurement": "tumour outcome (control, treated, inhibition, significance)", "setting": "Strain/Sex: SYRIAN/FEMALE, Target Tissue: Type of Lesion: PANCREAS: DUCTULAR CARCINOMA, Dose [Carcinogen]: 40 MG/KG BW ONCE", "value": "6/20 (30%), 8/33 (24%), 20%, not significant"}, {"measurement": "tumour outcome (control, treated, inhibition, significance)", "setting": "Strain/Sex: SYRIAN/MALE, Target Tissue: Type of Lesion: LIVER: BENIGN TUMOR, Dose [Carcinogen]: 40 MG/KG BW ONCE", "value": "5/24 (21%), 26/42 (62%), -195%, p<0.05"}, {"measurement": "tumour outcome (control, treated, inhibition, significance)", "setting": "Strain/Sex: SYRIAN/MALE, Target Tissue: Type of Lesion: ND: TOTAL TUMOR, Dose [Carcinogen]: 10 MG/KG BW ONCE", "value": "12/20 (54%), 31/39 (79%), -46%, not significant"}, {"measurement": "tumour outcome (control, treated, inhibition, significance)", "setting": "Strain/Sex: SYRIAN/MALE, Target Tissue: Type of Lesion: ND: TOTAL TUMOR, Dose [Carcinogen]: 40 MG/KG BW ONCE", "value": "20/24 (83%), 41/42 (98%), -18%, not significant"}, {"measurement": "tumour outcome (control, treated, inhibition, significance)", "setting": "Strain/Sex: SYRIAN/MALE, Target Tissue: Type of Lesion: PANCREAS: DUCTULAR ADENOMA, Dose [Carcinogen]: 10 MG/KG BW ONCE", "value": "3/22 (14%), 16/37 (43%), -207%, not significant"}, {"measurement": "tumour outcome (control, treated, inhibition, significance)", "setting": "Strain/Sex: SYRIAN/MALE, Target Tissue: Type of Lesion: PANCREAS: DUCTULAR ADENOMA, Dose [Carcinogen]: 40 MG/KG BW ONCE", "value": "8/24 (33%), 34/42 (81%), -145%, not significant"}]}
